Here are results for four compounds from patent US20120231470A1, “METHODS AND SYSTEMS ASSOCIATED WITH DETECTION OF FATTY ACID ELONGATION IN A CELL” (priority 2011, published 2012).

For series [1], the system named is fatty acid biosynthesis in B392 cells. Put plainly: High-throughput 96-well screen for fatty acid biosynthesis inhibitors. It is filed as cell-based, Vibrio harveyi. Conditions: B392, 96-well plate; for Detection as fatty acid biosynthesis inhibitor in the high-throughput screen: FIG. 6; for Fluorescence ratio between non-treated cells and drug treated cells: C6N3 5 mM overnight, final drug concentrations 500, 50 or 5 μM, cerulenin at sub-bacteriostatic concentration. Here is the method:
In this example, a high-throughput cell-based antibiotic screen, which would identify fatty acid biosynthesis inhibitors, was implemented. B392 cells in a 96-well plate were treated with various concentrations of commercially available fatty acid biosynthesis inhibitors, including cerulenin (Ref. 8), bischloroanthrabenzoxocinone (Ref. 10), thiolactomycin (Ref. 11), and platensimycin (Ref. 2) as well as a number of arbitrarily chosen drugs (listed in TABLE 3).
In TABLE 3 above, rows of the 96-well plate are indicated by a letter and the columns are indicated by a number. Antibiotics labeled with a *, the wells contain 200× stocks of 10 mM and 1 mM of antibiotic in descending order. For bischloroanthrabenzoxocinone, thiolactomycin, and platensimycin, the wells only contain 200× stocks of 1 mM of antibiotic. For other antibiotics, the wells contain 200× stocks of 100 mM, 10 mM, and 1 mM of antibiotic in descending order.
B392 cells given no drug treatment served as the control. Cells were then fed with C6N3 and allowed to grow overnight. Extracellular C6N3 was washed away with 0.9% NaCl three times, and cellular lipids were click-reacted with 50 μM cyclooctyne-coumarin conjugate for 30 minutes at 37° C. Non-reacted cyclooctyne-coumarin conjugate was washed away with 0.9% NaCl three times, and cells were re-suspended in 0.9% NaCl to be analyzed by plate reader. […]. It should be noted that the same method described here in Example 3 can be used to identify compounds which enhance fatty acid biosynthesis. […].
In particular, B392 cells were grown in 150 mL cultures of synthetic media (Ref. 9) until OD 0.3 was reached. Cells were transferred (1 mL of the culture loaded into each well) to a 2 mL 96-well plate via a multi-pipette robot (this robot was used for most liquid transfers mentioned in this example). To each well, 5 μL of antibiotic from a 200× stock antibiotic plate in DMSO (TABLE 3) was introduced to create final treatment concentrations of 500 μM, 50 μM, and 5 μM. After 30 minutes, 10 μL of 500 mM C6N3 in DMSO was introduced to each well for a final treatment concentration of 5 mM. Cells were grown overnight, then spun down at 2000 g for 10 minutes. Supernatant was removed, and then non-incorporated C6N3 was washed from cells three times by re-suspending the cells in 1 mL of 0.9% NaCl, spinning the cells down at 2000 g for 10 minutes, and removing the supernatant. The cells were re-suspended in 200 μL of 50 μM cyclooctyne-coumarin conjugate in 0.9% NaCl and incubated at 37° C. for 30 minutes. Cells were collected and washed three more times with 1 mL of 0.9% NaCl to remove non-reacted cyclooctyne-coumarin conjugate, and cells re-suspended in 400 μL of 0.9% NaCl were analyzed by plate reader for fluorescence (excitation 380 nm, detection 500 nm) and cell density.

The conditions of series [2]: known (Ref 10); cited from earlier work.
Series [3] deals with fatty acid elongation in V. harveyi strain CY1723. Put plainly: C6N3 incorporation/elongation assay, cyclooctyne-coumarin labeling, plate reader. In kind it is cell-based, Vibrio harveyi. Particulars: C6N3 5 mM + cerulenin 10 μg/mL. As to the method:
(§1) In particular, the cells were grown in 5 mL of synthetic media (Ref 9), and at OD 0.2, cerulenin was introduced to appropriate samples for a final treatment concentration of 10 μg/mL (sub-bacteriostatic). Then, at OD 0.3, C6N3 was introduced to appropriate samples for a final treatment concentration of 5 mM. After allowing the cells to grow in presence of C6N3 for 5 hours, the cells were spun down at 5000 g for 10 minutes, and the supernatant was removed. Non-incorporated C6N3 was washed from cells three times by re-suspending the cell pellet in 10 mL of 0.9% NaCl, spinning the cells down at 5000 g for 10 minutes, and removing the supernatant. […] The cells were re-suspended in 1 mL of 50 μM cyclooctyne-coumarin conjugate in 0.9% NaCl and incubated at 37° C. for 30 minutes. Cells were collected and washed three more times with 10 mL of 0.9% NaCl to remove non-reacted cyclooctyne-coumarin conjugate, and a fraction of the cells re-suspended in 2 mL of 0.9% NaCl were analyzed by plate reader (excitation 380 nm, detection 500 nm) or flow cytometry (excitation 407 nm, detection 450/40 bandpass filter).
In particular, the cells were grown in 5 mL of synthetic media (Ref 9), and at OD 0.2, cerulenin was introduced to appropriate samples for a final treatment concentration of 10 μg/mL (sub-bacteriostatic). […]

For series [4], the system named is fatty acid elongation in Vibrio harveyi strain B392. The series is described as above. It is filed as cell-based. Here is the method:
as §1
(§2) In particular, the cells were grown in 5 mL of synthetic media (Ref 9), and at OD 0.2, cerulenin was introduced to appropriate samples for a final treatment concentration of 10 μg/mL (sub-bacteriostatic). Then, at OD 0.3, C6N3 was introduced to appropriate samples for a final treatment concentration of 5 mM. After allowing the cells to grow in presence of C6N3 for 5 hours, the cells were spun down at 5000 g for 10 minutes, and the supernatant was removed. Non-incorporated C6N3 was washed from cells three times by re-suspending the cell pellet in 10 mL of 0.9% NaCl, spinning the cells down at 5000 g for 10 minutes, and removing the supernatant. The cells were re-suspended in 1 mL of 50 μM cyclooctyne-coumarin conjugate in 0.9% NaCl and incubated at 37° C. for 30 minutes. Cells were collected and washed three more times with 10 mL of 0.9% NaCl to remove non-reacted cyclooctyne-coumarin conjugate, and cells re-suspended in 2 mL of 0.9% NaCl were analyzed by plate reader (excitation 380 nm, detection 500 nm) or flow cytometry (excitation 407 nm, detection 450/40 bandpass filter).

Series [5] relates to fatty acid elongation in V. harveyi CY1723. Put plainly: C6N3 incorporation/elongation assay, cyclooctyne-coumarin labeling, flow cytometry. Particulars: C6N3 5 mM + cerulenin 10 μg/mL. In kind it is cell-based, Vibrio harveyi. As to the method: as §2
(§3) In addition, the samples were analyzed by flow cytometry (FIG. 4)

For series [6], the system named is fatty acid elongation in V. harveyi B392. The description is as above. Particulars: C6N3 5 mM + cerulenin 10 μg/mL. It is filed as cell-based, Vibrio harveyi. Here is the method: as §2, §3

For `COc1cc(C)c2c(c1)O[C@]1(C)Cc3cc4c(c(O)c3[C@H]2O1)C(=O)c1c(O)c(Cl)c(O)c(Cl)c1C4(C)C` [Bischloroanthrabenzoxocinone], the “Detection as fatty acid biosynthesis inhibitor in the high-throughput screen” value in series [1] is reported as “not detected”. Further, in series [2], the Cell permeability result was “poor cell permeability”.

As to `C/C=C/C/C=C/CCC(=O)[C@H]1O[C@H]1C(N)=O` [cerulenin, Cerulenin], the “Ratio (fluorescence/OD of Entry 1 divided by fluorescence/OD of the sample)” value in series [3] was 11.99; in series [4] (B392, C6N3 5 mM + cerulenin 10 μg/mL, plate reader) it was 11.58. The Fluorescence/OD in series [3] (5 hours) turned out to be 44069; in series [4] (B392, C6N3 5 mM + cerulenin 10 μg/mL, 5 hours, plate reader) it was 45609. The “Fold decrease in fluorescence of cerulenin-treated culture compared to the same culture untreated” value in series [4] (B392, C6N3 5 mM, cerulenin 10 μg/mL, FIG. 3) was “about seven-fold”. Besides, the “Inhibition of fatty acid biosynthesis / azide incorporation in lipids” value in series [4] (B392 and CY1723 cells treated with C6N3 and cerulenin, TABLES 1 and 2) is “inhibited fatty acid biosynthesis efficiently”. For the same compound, in series [1], the “Fluorescence ratio between non-treated cells and drug treated cells” value is around 4.5. In series [1], the “Detection as fatty acid biosynthesis inhibitor in the high-throughput screen” value is “can be detected”. Further, the Mean fluorescence in series [5] worked out at 1704; in series [6], 2347. The figures for the “Ratio (mean fluorescence of Entry 1 divided by mean fluorescence of the sample)” value in series [5] and in series [6] were 11.09 and 8.06, respectively.

For `CC12C[C@@]34C=CC(=O)[C@@](C)(CCC(=O)Nc5c(O)ccc(C(=O)O)c5O)C3[C@H](CC1C4)O2` (stereo partly drawn) [platensimycin, Platensimycin], in series [1], the “Fluorescence ratio between non-treated cells and drug treated cells” value is reported as around 2.6; the “Detection as fatty acid biosynthesis inhibitor in the high-throughput screen” value is listed as “can be detected”.

In the case of `C=C/C(C)=C/[C@@]1(C)SC(=O)C(C)=C1O` [thiolactomycin, Thiolactomycin], in series [1], the “Fluorescence ratio between non-treated cells and drug treated cells” value is recorded as around 4.0; the “Detection as fatty acid biosynthesis inhibitor in the high-throughput screen” value is reported as “can be detected”.
